Data taken from patent US20090054515A1, “SKIN-WHITENING COSMETIC” (POLA CHEMICAL INDUSTRIES INC., priority 2006, published 2009).

How the values were obtained:
[1] = biological target: T1, tyrosinase extracted from normal human melanocytes (Homo sapiens, UniProt P14679); experiment: Normal human melanocytes tyrosinase activity inhibition test (dopa-oxidizing activity); assay type: biochemical; settings: for Dopa-oxidizing activity: control defined as 100%, 10 minutes at 37° C.; for action on the activity of tyrosinase: 1 to 100 μM
T1 construct: to thereby produce a protein solution, which was used as a crude tyrosinase protein solution; host or cells: human normal melanocytes; extract made with a Subcellular Proteome Extraction Kit (Calbiochem)
T1 sequence (P14679 19-529): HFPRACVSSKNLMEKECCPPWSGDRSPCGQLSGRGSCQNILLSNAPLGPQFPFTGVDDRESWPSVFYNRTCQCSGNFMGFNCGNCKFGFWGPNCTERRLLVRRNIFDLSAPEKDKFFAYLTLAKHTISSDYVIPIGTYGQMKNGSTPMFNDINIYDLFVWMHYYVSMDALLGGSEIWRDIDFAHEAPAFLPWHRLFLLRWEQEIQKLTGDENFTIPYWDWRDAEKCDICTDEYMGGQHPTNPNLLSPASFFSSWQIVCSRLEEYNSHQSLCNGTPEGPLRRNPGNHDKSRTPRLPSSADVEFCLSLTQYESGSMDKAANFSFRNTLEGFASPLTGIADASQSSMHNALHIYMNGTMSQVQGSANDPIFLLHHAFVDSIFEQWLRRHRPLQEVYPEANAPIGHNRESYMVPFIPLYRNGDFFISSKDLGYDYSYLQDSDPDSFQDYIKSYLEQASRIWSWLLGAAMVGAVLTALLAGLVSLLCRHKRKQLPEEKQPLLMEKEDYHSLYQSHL
Procedure: Human normal melanocytes (from Kurabo Industries Ltd.), cultured in a medium for culturing melanocytes (Medium 254, from Kurabo Industries Ltd.), were collected using a cell scraper, and extraction was performed for the cells using PreteoExtract™ Subcellular Proteome Extraction Kit (Calbiochem), to thereby produce a protein solution, which was used as a crude tyrosinase protein solution. The dopa-oxidizing activity of the tyrosinase protein solution was measured to evaluate the tyrosinase activity-inhibiting action of Compound (1).
A 0.1% dopa solution, serving as a substrate, was prepared by dissolving L-β-(3,4-dihydroxyphenyl)alanine (L-DOPA) in 10 mM sodium phosphate buffer (pH 6.8) at a concentration of 0.1 (w/v) %. A crude tyrosinase protein solution, prepared to 1 to 5 μg/80 μL, was fed into a 96-well plate in an amount of 80 μL per well, and solutions of 10 μM, 100 μM, and 1,000 μM Compound (1) in DMSO were separately added to three wells each in an amount of 20 μL per well. Meanwhile, as positive controls, solutions of 10 μM, 100 μM, and 1,000 μM phenylthiourea, known as a tyrosinase activity inhibitor, in DMSO were separately added in the same way as above to different three wells each in an amount of 20 μL per well. In addition, as a control, DMSO was added to another different three wells each in an amount of 20 μL per well. Immediately after 100 μL each of the 0.1% dopa solution was added to the wells each containing the above-described test solution, absorbances at 450 nm were measured using a plate reader and were defined as 0-minute values. The 96-well plate was incubated at 37° C. for 10 minutes in the plate reader, and the absorbances at 450 nm were measured again and defined as 10-minute values. A value calculated by subtracting the 0-minute value from the 10-minute value of each well was defined as a 0→10 minute absorbance change value, and the average of 0→10 minute absorbance change value of control was defined as 100%, followed by measurement of dopa-oxidizing activities in the cases of treatments with various concentrations of test substances.

Trp-2 = experiment: Expression of Trp-2 by Western blotting; assay type: cell-based; settings: 5 μM, 72-hour culture, human normal melanocytes
Procedure: (§1) A cell suspension of human normal melanocytes (from Kurabo Industries Ltd.) in a medium for culturing melanocytes (Medium 254, from Kurabo Industries Ltd.) was prepared at 7×10^4 cells/mL and inoculated into φ10-cm culture petri dishes in an amount of 10 mL per dish, and the cells were cultured in a CO2 incubator (37° C., 5% CO2). The next day, the medium was removed, and a medium for culturing melanocytes containing 2 μM or 5 μM Compound (1) or a medium for culturing melanocytes (control) was added in an amount of 10 mL per dish, followed by culture in a CO2 incubator for 72 hours. After 72-hour culture, the medium was removed, and the cells were washed with phosphate buffered saline (PBS) and collected using a cell scraper. A protein extraction solution (0.1% NP-40, 0.01% SDS, 10 mM sodium phosphate buffer (pH 6.8), protease inhibitor) was added to the cell pellets to suspend the cells, and the suspension was shaken at 4° C. for 1 hour. The resultant was centrifuged at 4° C. and 15,000 rpm for 10 minutes, and the supernatant was collected and used as a crude protein extract. […]
(§2) The membrane was washed with TPBS, and proteins were detected using an ECL Plus western blotting detection system. […]

Trp-1 = experiment: Expression of Trp-1 by Western blotting; assay type: cell-based; settings: 5 μM, 72-hour culture, human normal melanocytes
Procedure: as §1, §2

human normal melanocytes = experiment: Melanin formation inhibition test (14C-thiouracil uptake); assay type: cell-based; settings: for Melanin level (%): three days culture, % of control
Procedure: The melanin formation inhibitory action of Compound (1) was evaluated using thiouracil (in this test, thiouracil labeled with ^14C was used), which is specifically taken into cells in a melanin synthesis process. A complete medium for culturing melanocytes (from Kurabo Industries Ltd.) was added to 15 wells of a 24-well plate in an amount of 2 ml per well, and human normal melanocytes (from Kurabo Industries Ltd.) were inoculated into each well at a concentration of 1.5×10^4 cells/cm^2. The cells were cultured at 37° C. for 24 hours under 5% carbon dioxide atmosphere. Thereafter, in all the wells, the medium was exchanged under the following conditions. That is, a fresh complete medium for culturing melanocytes was added to three wells (control), complete mediums for culturing melanocytes containing Compound (1) at concentrations of 1.0×10^−3 mM, 2.0×10^−3 mM, and 4.0×10^−3 mM were added to three wells each (total: nine wells), and a complete medium for culturing melanocytes containing 0.1 mM phenylthiourea, which is known as a tyrosinase inhibitor, was added to other three wells. In addition, to those 15 wells was added ^14C-thiouracil (thiouracil labeled with ^14C) was added at 0.25×10^−6 Ci (curie). The cells were cultured under the same conditions as above for further three days. After completion of the culture, the culture solution was removed from the wells, and the cells were washed with PBS (phosphate buffered saline) and detached with a medium containing trypsin and EDTA from the bottom of each well to produce cell suspensions, followed by centrifugation to collect the cells. The numbers of the cells were counted using a blood cell counting chamber. Thereafter, the ^14C-thiouracil level in the cells collected from each well was determined using a liquid scintillation counter. The percentage of a radiation dose of the cells cultured in each medium containing a test substance based on a radiation dose of the cells collected from the control wells was calculated to determine a melanin level (%). That is, it is considered that the smaller the radiation dose taken in the cells is, the smaller the melanin level is, resulting in a large melanin inhibition titer.

tyrosinase = experiment: Expression of tyrosinase by Western blotting; assay type: cell-based; settings: 5 μM, 72-hour culture, human normal melanocytes
Procedure: as §1, §2

Compound	Dopa-oxidizing activity ([1]; 1 μM added substance) [%]	Dopa-oxidizing activity ([1]; 10 μM added substance) [%]	Dopa-oxidizing activity ([1]; 100 μM added substance) [%]	action on the activity of tyrosinase [1]	expression level of Trp-2 (Trp-2)	expression level of Trp-1 (Trp-1)	melanin formation inhibitory action (human normal melanocytes; 1.0-4.0 × 10^−3 mM)	Melanin level (%) (human normal melanocytes; 1.0 × 10^−3 mM in medium)	Melanin level (%) (human normal melanocytes; 2.0 × 10^−3 mM in medium)	Melanin level (%) (human normal melanocytes; 4.0 × 10^−3 mM in medium)	melanin formation inhibition titer relative to phenylthiourea (positive control) (human normal melanocytes; Compound (1) 4.0×10^−3 mM versus phenylthiourea 0.1 mM) [times]	inhibition of melanin formation (human normal melanocytes; cultured cell system of Test Example 1, concentration 25-fold lower than 100 μM) [%]	expression level of tyrosinase (tyrosinase)	Melanin level (%) (human normal melanocytes; 0.1 mM in medium)
CC(C)(C)c1cc(C(=O)c2cccs2)cc(C(C)(C)C)c1O [Compound (1), 2,6-di-tert-butyl-4-(2′-thenoyl)phenol]	103.55 ± 1.34	102.52 ± 3.68	102.52 ± 2.19	did not inhibit the activity of tyrosinase	did not affect	did not affect	concentration-dependent melanin formation inhibitory action	48.5 ± 2.3	27.9 ± 0.8	17.0 ± 0.8	≥ 20	≥ 80	did not affect	
NC(=S)Nc1ccccc1 [Phenylthiourea, phenylthiourea, reference compound]	64.07 ± 1.53	22.52 ± 1.09	4.73 ± 2.07	had an action of inhibiting the activity of tyrosinase										20.3 ± 3.8
